# Measurements as given in patent publication US20240209028A1, “CNP COMPOUNDS” (priority 2022, published 2024).
# Starred links: 1 amine or outer side, 2 acyl side, 3 side chain; linkers in the order of their positions; H or OH if unused. Positions of bridges follow the written chain, without caps; N, C: chain ends. Non-standard residues stand in square brackets, D forms with d. Residues, ends and D or L forms follow the SMILES beside them. *: point of attachment. C18 diacid = O=C(O)CCCCCCCCCCCCCCCCC(=O)*; γGlu = O=C(O)[C@H](CCC(=O)[*:2])N[*:1]; AEEA = NCCOCCOCC(=O)O
# Molecular target: T1, human natriuretic peptide receptor 2 (hNPR2) (Homo sapiens, UniProt P20594)
# T1 construct: expressed in transfected cells; host or cells: HEK293 (ATCC CRL-1573), clone 35, co-transfected with pGloSensor-42F
# T1 sequence (P20594 23-1047): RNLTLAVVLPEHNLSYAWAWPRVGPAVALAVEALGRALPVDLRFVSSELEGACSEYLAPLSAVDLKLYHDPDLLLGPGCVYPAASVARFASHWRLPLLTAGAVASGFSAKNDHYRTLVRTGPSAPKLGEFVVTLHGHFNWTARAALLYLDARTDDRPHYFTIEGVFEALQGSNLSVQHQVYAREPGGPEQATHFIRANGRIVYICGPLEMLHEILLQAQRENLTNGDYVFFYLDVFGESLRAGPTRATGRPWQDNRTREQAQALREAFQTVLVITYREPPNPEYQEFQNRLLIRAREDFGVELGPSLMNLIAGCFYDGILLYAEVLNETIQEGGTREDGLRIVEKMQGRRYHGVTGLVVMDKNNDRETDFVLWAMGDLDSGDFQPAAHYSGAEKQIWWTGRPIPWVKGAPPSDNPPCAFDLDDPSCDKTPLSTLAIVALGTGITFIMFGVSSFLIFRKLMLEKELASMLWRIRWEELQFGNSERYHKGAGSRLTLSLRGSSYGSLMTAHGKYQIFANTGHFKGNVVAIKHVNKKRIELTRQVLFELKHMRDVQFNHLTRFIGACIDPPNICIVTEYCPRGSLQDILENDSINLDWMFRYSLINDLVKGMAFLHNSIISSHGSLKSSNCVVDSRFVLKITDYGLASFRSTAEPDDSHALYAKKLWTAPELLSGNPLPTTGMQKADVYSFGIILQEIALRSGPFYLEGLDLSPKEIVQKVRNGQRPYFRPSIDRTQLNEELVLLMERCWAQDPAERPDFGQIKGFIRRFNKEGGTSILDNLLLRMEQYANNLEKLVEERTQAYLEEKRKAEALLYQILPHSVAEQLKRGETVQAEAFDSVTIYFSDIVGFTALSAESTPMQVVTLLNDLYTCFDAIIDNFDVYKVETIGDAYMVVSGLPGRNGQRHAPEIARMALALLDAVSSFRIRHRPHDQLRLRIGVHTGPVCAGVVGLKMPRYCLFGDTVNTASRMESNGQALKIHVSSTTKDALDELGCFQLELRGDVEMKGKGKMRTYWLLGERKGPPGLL
# Test: In vitro hNPR2 activity assay (cGMP GloSensor reporter, HEK293)
# Format: cell-based
# Conditions: 0% HSA; HEK293-hNPR2/GloSensor cells
# Procedure, shortened: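 Potency is the EC50 from a four-parameter logistic fit, also expressed relative to the in-plate CNP22 control (×100), with at least two replicates. Compounds (ten concentrations, […], HSA-free diluent with 1% OVA, 0.01% Tween20) were incubated 30 min at 37 °C on HEK293 cells co-expressing hNPR2 and a GloSensor cGMP luciferase. Luminescence detected with Bright-Glo.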
row,SMILES,EC50 [nM]
1,CC[C@H](C)[C@@H]1NC(=O)[C@H](CCCNC(=N)N)NC(=O)[C@H](CCC(=O)O)NC(=O)[C@H](CC(C)C)NC(=O)[C@@H]2CCCN2C(=O)[C@H](CC(C)C)NC(=O)CNC(=O)[C@H](Cc2ccccc2)NC(=O)[C@@H](NC(=O)CNC(=O)[C@H](CCC(N)=O)NC(=O)[C@H](CO)NC(=O)[C@H](CO)NC(=O)CNC(=O)[C@H](CCCCN)NC(=O)[C@H](CCCCN)NC(=O)[C@H](CCC(N)=O)NC(=O)[C@H](C)NC(=O)CNC(=O)[C@@H]2CCCN2C(=O)[C@H](C)NC(=O)[C@H](CCC(N)=O)NC(=O)CNC(=O)COCCOCCNC(=O)COCCOCCNC(=O)CC[C@H](NC(=O)CCCCCCCCCCCCCCCCC(=O)O)C(=O)O)CSSC[C@@H](C(=O)O)NC(=O)CNC(=O)[C@H](CC(C)C)NC(=O)CNC(=O)[C@H](CO)NC(=O)[C@H](CC(C)C)NC(=O)[C@H](CO)NC(=O)CNC1=O [compound 1486] ({C18 diacid-γGlu-AEEA-AEEA}-GQAPGAQKKGSSQGCFGLPLERIGSLSGLGC-OH; disulfide 15-31; C-terminus assumed),0.14

# Same assay, conditions: potency relative to CNP22 (0065)
row,SMILES,hNPR2 0% HSA. [EC50% rel CNP] [%]
1,CC[C@H](C)[C@@H]1NC(=O)[C@H](CCCNC(=N)N)NC(=O)[C@H](CC(=O)O)NC(=O)[C@H](CC(C)C)NC(=O)[C@@H]2CCCN2C(=O)[C@H](CC(C)C)NC(=O)CNC(=O)[C@H](Cc2ccccc2)NC(=O)[C@@H](NC(=O)CNC(=O)[C@H](CCC(N)=O)NC(=O)[C@H](CO)NC(=O)[C@H](CC(C)C)NC(=O)CNC(=O)[C@H](CCCCN)NC(=O)[C@H](CCCCN)NC(=O)[C@H](CC(N)=O)NC(=O)[C@H](C)NC(=O)CNC(=O)[C@H](CCCCN)NC(=O)[C@H](Cc2ccc(O)cc2)NC(=O)[C@H](CCCCN)NC(=O)[C@H](CCCNC(=N)N)NC(=O)[C@H](C)NC(=O)COCCOCCNC(=O)COCCOCCNC(=O)COCCOCCNC(=O)COCCOCCNC(=O)CC[C@H](NC(=O)CC[C@H](NC(=O)CC[C@H](NC(=O)CC[C@H](NC(=O)CC[C@H](NC(=O)CCCCCCCCCCCCCCCCC(=O)O)C(=O)O)C(=O)O)C(=O)O)C(=O)O)C(=O)O)CSSC[C@@H](C(=O)O)NC(=O)CNC(=O)[C@H](CC(C)C)NC(=O)CNC(=O)[C@H](CO)NC(=O)[C@H](CC(C)C)NC(=O)[C@H](CO)NC(=O)CNC1=O [compound 1464] ({C18 diacid-γGlu-γGlu-γGlu-γGlu-γGlu-AEEA-AEEA-AEEA-AEEA}-ARKYKGANKKGLSQGCFGLPLDRIGSLSGLGC-OH; disulfide 16-32; C-terminus assumed),48.8
2,CC[C@H](C)[C@@H]1NC(=O)[C@H](CCCNC(=N)N)NC(=O)[C@H](CC(=O)O)NC(=O)[C@H](CC(C)C)NC(=O)[C@@H]2CCCN2C(=O)[C@H](CC(C)C)NC(=O)CNC(=O)[C@H](Cc2ccccc2)NC(=O)[C@@H](NC(=O)CNC(=O)[C@H](CCC(N)=O)NC(=O)[C@H](CO)NC(=O)[C@H](CC(C)C)NC(=O)CNC(=O)[C@H](CCCCN)NC(=O)[C@H](CCCCN)NC(=O)[C@H](CCC(N)=O)NC(=O)[C@H](C)NC(=O)CNC(=O)[C@H](CCCCN)NC(=O)[C@H](Cc2ccc(O)cc2)NC(=O)[C@H](CCCCN)NC(=O)[C@H](CCCNC(=N)N)NC(=O)[C@H](C)NC(=O)COCCOCCNC(=O)COCCOCCNC(=O)COCCOCCNC(=O)COCCOCCNC(=O)CC[C@H](NC(=O)CC[C@H](NC(=O)CC[C@H](NC(=O)CC[C@H](NC(=O)CC[C@H](NC(=O)CCCCCCCCCCCCCCCCC(=O)O)C(=O)O)C(=O)O)C(=O)O)C(=O)O)C(=O)O)CSSC[C@@H](C(=O)O)NC(=O)CNC(=O)[C@H](CC(C)C)NC(=O)CNC(=O)[C@H](CO)NC(=O)[C@H](CCSC)NC(=O)[C@H](CO)NC(=O)CNC1=O [compound 1465] ({C18 diacid-γGlu-γGlu-γGlu-γGlu-γGlu-AEEA-AEEA-AEEA-AEEA}-ARKYKGAQKKGLSQGCFGLPLDRIGSMSGLGC-OH; disulfide 16-32),24.0
3,CC[C@H](C)[C@@H]1NC(=O)[C@H](CCCNC(=N)N)NC(=O)[C@H](CC(=O)O)NC(=O)[C@H](CC(C)C)NC(=O)[C@@H]2CCCN2C(=O)[C@H](CC(C)C)NC(=O)CNC(=O)[C@H](Cc2ccccc2)NC(=O)[C@@H](NC(=O)CNC(=O)[C@H](CCC(N)=O)NC(=O)[C@H](CO)NC(=O)[C@H](CC(C)C)NC(=O)CNC(=O)[C@H](CCCCN)NC(=O)[C@H](CCCCN)NC(=O)[C@H](CCC(N)=O)NC(=O)[C@H](C)NC(=O)CNC(=O)[C@H](CCCCN)NC(=O)[C@H](Cc2ccc(O)cc2)NC(=O)[C@H](CCCCN)NC(=O)[C@H](CCCNC(=N)N)NC(=O)[C@H](C)NC(=O)[C@H](CCC(N)=O)NC(=O)[C@@H]2CCCN2C(=O)[C@H](Cc2c[nH]cn2)NC(=O)[C@H](CCC(=O)O)NC(=O)[C@H](CCC(N)=O)NC(=O)COCCOCCNC(=O)COCCOCCNC(=O)CC[C@H](NC(=O)CC[C@H](NC(=O)CC[C@H](NC(=O)CC[C@H](NC(=O)CC[C@H](NC(=O)CCCCCCCCCCCCCCCCC(=O)O)C(=O)O)C(=O)O)C(=O)O)C(=O)O)C(=O)O)CSSC[C@@H](C(=O)O)NC(=O)CNC(=O)[C@H](CC(C)C)NC(=O)CNC(=O)[C@H](CO)NC(=O)[C@H](CC(C)C)NC(=O)[C@H](CO)NC(=O)CNC1=O [compound 1471] ({C18 diacid-γGlu-γGlu-γGlu-γGlu-γGlu-AEEA-AEEA}-QEHPQARKYKGAQKKGLSQGCFGLPLDRIGSLSGLGC-OH; disulfide 21-37),40.2
4,CC[C@H](C)[C@@H]1NC(=O)[C@H](CCCNC(=N)N)NC(=O)[C@H](CC(=O)O)NC(=O)[C@H](CC(C)C)NC(=O)[C@@H]2CCCN2C(=O)[C@H](CC(C)C)NC(=O)CNC(=O)[C@H](Cc2ccccc2)NC(=O)[C@@H](NC(=O)CNC(=O)[C@H](CCC(N)=O)NC(=O)[C@H](CO)NC(=O)[C@H](CC(C)C)NC(=O)CNC(=O)[C@H](CCCCN)NC(=O)[C@H](CCCCN)NC(=O)[C@H](CCC(N)=O)NC(=O)[C@H](C)NC(=O)CNC(=O)[C@H](CCCCN)NC(=O)[C@H](Cc2ccc(O)cc2)NC(=O)[C@H](CCCCN)NC(=O)[C@H](CCCNC(=N)N)NC(=O)[C@H](C)NC(=O)[C@H](CCC(N)=O)NC(=O)[C@@H]2CCCN2C(=O)[C@H](Cc2c[nH]cn2)NC(=O)[C@H](CCC(=O)O)NC(=O)[C@H](CCC(N)=O)NC(=O)COCCOCCNC(=O)COCCOCCNC(=O)CC[C@H](NC(=O)CC[C@H](NC(=O)CC[C@H](NC(=O)CC[C@H](NC(=O)CCCCCCCCCCCCCCCCC(=O)O)C(=O)O)C(=O)O)C(=O)O)C(=O)O)CSSC[C@@H](C(=O)O)NC(=O)CNC(=O)[C@H](CC(C)C)NC(=O)CNC(=O)[C@H](CO)NC(=O)[C@H](CC(C)C)NC(=O)[C@H](CO)NC(=O)CNC1=O [compound 1472] ({C18 diacid-γGlu-γGlu-γGlu-γGlu-AEEA-AEEA}-QEHPQARKYKGAQKKGLSQGCFGLPLDRIGSLSGLGC-OH; disulfide 21-37; C-terminus assumed),52.0
5,CC[C@H](C)[C@@H]1NC(=O)[C@H](CCCNC(=N)N)NC(=O)[C@H](CC(=O)O)NC(=O)[C@H](CC(C)C)NC(=O)[C@@H]2CCCN2C(=O)[C@H](CC(C)C)NC(=O)CNC(=O)[C@H](Cc2ccccc2)NC(=O)[C@@H](NC(=O)CNC(=O)[C@H](CCC(N)=O)NC(=O)[C@H](CO)NC(=O)[C@H](CC(C)C)NC(=O)CNC(=O)[C@H](CCCCN)NC(=O)[C@H](CCCCN)NC(=O)[C@H](CCC(N)=O)NC(=O)[C@H](C)NC(=O)CNC(=O)[C@H](CCCCN)NC(=O)[C@H](Cc2ccc(O)cc2)NC(=O)COCCOCCNC(=O)COCCOCCNC(=O)COCCOCCNC(=O)COCCOCCNC(=O)[C@H](CCC(=O)O)NC(=O)[C@H](CCC(=O)O)NC(=O)[C@H](CCC(=O)O)NC(=O)CCCCCCCCCCCCCCCCC(=O)O)CSSC[C@@H](C(=O)O)NC(=O)CNC(=O)[C@H](CC(C)C)NC(=O)CNC(=O)[C@H](CO)NC(=O)[C@H](CC(C)C)NC(=O)[C@H](CO)NC(=O)CNC1=O [compound 1481] ({C18 diacid}-EEE[AEEA][AEEA][AEEA][AEEA]YKGAQKKGLSQGCFGLPLDRIGSLSGLGC-OH; disulfide 20-36),35.1
6,CC[C@H](C)[C@@H]1NC(=O)[C@H](CCCNC(=N)N)NC(=O)[C@H](CCC(=O)O)NC(=O)[C@H](CC(C)C)NC(=O)[C@@H]2CCCN2C(=O)[C@H](CC(C)C)NC(=O)CNC(=O)[C@H](Cc2ccccc2)NC(=O)[C@@H](NC(=O)CNC(=O)[C@H](CCC(N)=O)NC(=O)[C@H](CO)NC(=O)[C@H](CO)NC(=O)CNC(=O)[C@H](CCCCN)NC(=O)[C@H](CCCCN)NC(=O)[C@H](CCC(N)=O)NC(=O)[C@H](C)NC(=O)CNC(=O)[C@@H]2CCCN2C(=O)[C@H](C)NC(=O)[C@H](CCC(N)=O)NC(=O)CNC(=O)COCCOCCNC(=O)COCCOCCNC(=O)CC[C@H](NC(=O)CCCCCCCCCCCCCCCCC(=O)O)C(=O)O)CSSC[C@@H](C(=O)O)NC(=O)CNC(=O)[C@H](CC(C)C)NC(=O)CNC(=O)[C@H](CO)NC(=O)[C@H](CC(C)C)NC(=O)[C@H](CO)NC(=O)CNC1=O [compound 1486] ({C18 diacid-γGlu-AEEA-AEEA}-GQAPGAQKKGSSQGCFGLPLERIGSLSGLGC-OH; disulfide 15-31; C-terminus assumed),6.0
